Results: paper PMC8624998, “Synthesis and Antiproliferative Evaluation of 3-Chloroazetidin-2-ones with Antimitotic Activity: Heterocyclic Bridged Analogues of Combretastatin A-4” (Pharmaceuticals, 2021)
Read-outs that look alike come from different tables or passages of the source. Marks after values point to notes of the source that are not given here.

Legend:
[1] = tested on: MCF-7 cells; assay: Cell viability assay (MTT/AlamarBlue), antiproliferative activity; assay type: cell-based, human; conditions: for IC50: Homo sapiens, MCF7, 72 h, read-out: IC50 (MCF-7, 72 h)
Text: […]. The introduction of the halogen substituent at C-3 was examined in an effort to investigate the effect on the activity of this substituent, and subsequently optimising the cytotoxic effects against MCF-7 human breast cancer cells.
The human breast carcinoma cell line MCF-7 was purchased from the European Collection of Animal Cell Cultures (ECACC). Triple negative breast cancer Hs578T cells and its invasive variant Hs578Ts(i)8 were a kind gift from Dr. Susan McDonnell, School of Chemical and Bioprocess Engineering, University College Dublin. U266 cells were a gift from Dr. Tony McElligott, School of Medicine, St James’s Hospital, Trinity College Dublin. HT-29 cells were purchased from the European Collection of Cell Cultures (originating from a human adenocarcinoma of the colon). The human breast carcinoma cell line MDA-MB-231 and the HL-60 cells derived from a patient with acute myeloid leukaemia were both obtained from ECACC (Salisbury, UK). The SW-480 cells were a kind gift from Dr. Brian Flood, School of Biochemistry and Immunology, Trinity College Dublin. HEK-293T (normal epithelial embryonic kidney cells) were cultured in Dulbecco’s Modified Eagle’s Medium (DMEM) with GlutaMAXTM-I in the absence of non-essential amino acids. Human breast cancer MCF-7 cells and multiple myeloma U266 cells were cultured in Minimum Essential Media (MEM) with GlutaMAX™-I, supplemented with 1% (v/v) non-essential amino acids, 10% 2(v/v) foetal bovine serum (FBS) and 1% (v/v) penicillin/streptomycin 5000 U/mL. MDA-MB-231 cells were maintained in DMEM supplemented with 10% (v/v) foetal bovine serum, 2 mM L-glutamine and 100 μg/mL penicillin/streptomycin (complete medium). Colon cancer HT-29 and SW-480 and triple negative breast cancer Hs578T and its invasive variant Hs578T8i were cultured in DMEM with GlutaMAX™-I, with the same supplement in the absence of non-essential amino acids. Leukaemia HL-60 cancer cells were cultured in Roswell Park Memorial Institute Media (RPMI-1640) with GlutaMAX™-I, supplemented with 10% FCS media, and 100 μg/mL penicillin/streptomycin as above. Cell numbers were monitored using a haemocytometer. Cell culture flasks were incubated in a humidified incubator (5% CO2/95% air) at 37 °C. All cell lines were sub-cultured three times per week with trypsinisation using TrypLE Express (1X) required for adherent cell lines.
. All stock solutions and serial dilution in ethanol/DMSO were stored at -20 °C. All cells were seeded at a density of 2.5 × 10^4 cells/mL in a 96-well plate (200 μL per well). The cells were incubated in a […] atmosphere at 37 °C for 24 h, then treated with test compound (2 μL of stock solutions per 200-microlitre well) in ethanol to obtain a concentration range of 1 nM–200 μM for the study. The plates were then re-incubated for a further 72 h. Control wells contained an equivalent volume of the vehicle ethanol or DMSO (1% v/v). MTT cell viability assay: The culture medium was removed, and the cells were washed with phosphate buffered saline (PBS, […]). MTT (dissolved in PBS, […]) was added to obtain a final concentration of MTT (1 mg/mL). Cells were incubated at 37 °C for 3 h in the dark. Solubilisation was commenced by the addition of DMSO ([…]) and the cells were maintained at 20 °C in the dark for 20 min before reading the absorbance to ensure complete colour diffusion. The absorbance value of control cells (no added compound) was set to 100% cell viability and absorbance versus cell density per well was determined to assess cell viability using Graph-Pad Prism software. AlamarBlue cell viability assay: Cells were seeded in 96-well plates (e.g., MCF-7, 5 × 10^3 cells/well) and (HT-29 cells, 1 × 10^3 cells/well) and (HL-60 cells, 1 × 10^4 cells/well) with a total volume per well of 200 µL. After 24 h, cells were treated in triplicate with serial dilutions of CA-4 or β-lactam analogues (0.001–100 μM), medium alone or vehicle (1% ethanol (v/v)). […]

Row | IC50 ([1]; MCF-7, 72 h) | melting point | Structure (SMILES) | IC50 [1] | inhibition of cell viability at a concentration of 10 μM ([1]; MCF-7, 72 h)
1 | 23.4 ± 2.8 µM | – | COc1cc(N2C(=O)C(Cl)C2c2ccccc2)cc(OC)c1OC (centres unmarked) [Compound 10a, 3-Chloro-1-(3,4,5-trimethoxyphenyl)-4-phenylazetidin-2-one] | – | –
2 | – | – | COc1ccc(C2N(c3cc(OC)c(OC)c(OC)c3)C(=O)C2(Cl)Cl)cc1OP(=O)(O)O (centres unmarked) [Compound 18, 5-(3,3-Dichloro-1-(3,4,5-trimethoxyphenyl)-4-oxoazetidin-2-yl)-2-methoxyphenyl dihydrogen phosphate] | 0.077 ± 0.01 µM | –
3 | 18.2 ± 1.83 µM | 150 to 152 °C | COc1cc(N2C(=O)C(Cl)(Cl)C2c2ccc(Br)cc2)cc(OC)c1OC (centres unmarked) [Compound 11c, 4-(4-Bromophenyl)-3,3-dichloro-1-(3,4,5-trimethoxyphenyl)azetidin-2-one] | – | –
4 | 0.506 ± 0.11 µM | – | COc1cc(N2C(=O)C(Cl)C2c2ccc(Br)cc2)cc(OC)c1OC (centres unmarked) [Compound 10c, 4-(4-Bromophenyl)-3-chloro-1-(3,4,5-trimethoxyphenyl)azetidin-2-one] | – | –
5 | 0.317 ± 0.04 µM | – | COc1ccc([C@@H]2[C@H](Cl)C(=O)N2c2cc(OC)c(OC)c(OC)c2)cc1 (relative stereo) [Compound 10e cis, Cis-3-chloro-1-(3,4,5-trimethoxyphenyl)-4-(4-methoxyphenyl) azetidin-2-one] | – | –
6 | 0.68 ± 0.16 µM | 93 to 94 °C | COc1ccc(C2C(Cl)C(=O)N2c2cc(OC)cc(OC)c2)cc1 (centres unmarked) [Compound 14a, 3-Chloro-1-(3,5-dimethoxyphenyl)-4-(4-methoxyphenyl)azetidin-2-one] | – | –
7 | 3.09 ± 0.41 µM | 93 to 95 °C | COc1ccc(C2C(Cl)C(=O)N2c2cc(OC)c(OC)c(OC)c2)cc1[N+](=O)[O-] (centres unmarked) [Compound 10m, 3-Chloro-4-(4-methoxy-3-nitrophenyl)-1-(3,4,5-trimethoxyphenyl) azetidin-2-one] | – | –
8 | 45.9 ± 6.73 µM | 64 to 66 °C | COc1ccc(N2C(=O)C(Cl)(Cl)C2c2cc(OC)c(OC)c(OC)c2)cc1 (centres unmarked) [Compound 13a, 3,3-Dichloro-4-(3,4,5-trimethoxyphenyl)-1-(4-methoxyphenyl)azetidin-2-one] | – | –
9 | 0.273 ± 0.01 µM | – | CCOc1ccc(C2N(c3cc(OC)cc(OC)c3)C(=O)C2(Cl)Cl)cc1 (centres unmarked) [Compound 15b, 3,3-Dichloro-1-(3,5-dimethoxyphenyl)-4-(4-ethoxyphenyl)azetidin-2-one] | – | –
10 | 36.3 ± 3.68 µM | – | COc1cc(N2C(=O)C(Cl)(Cl)C2c2ccc(OCc3ccccc3)cc2)cc(OC)c1OC (centres unmarked) [Compound 11h, 4-(4-Benzyloxyphenyl)-3,3-dichloro-1-(3,4,5-trimethoxyphenyl) azetidin-2-one] | – | –
11 | – | 113 to 115 °C | CCOc1ccc(N2C(=O)C(Cl)C2c2cc(OC)c(OC)c(OC)c2)cc1 (centres unmarked) [Compound 12b, 3-Chloro-1-(4-ethoxyphenyl)-4-(3,4,5-trimethoxyphenyl)azetidin-2-one] | – | 25% (10 μM) ^c
12 | 4.37 ± 0.61 µM | – | COc1cc(N2C(=O)C(Cl)C2c2ccc([N+](=O)[O-])cc2)cc(OC)c1OC (centres unmarked) [Compound 10d, 3-Chloro-1-(3,4,5-trimethoxyphenyl)-4-(4-nitrophenyl)azetidin-2-one] | – | –
13 | 1.3 ± 0.17 µM | – | COc1cc(N2C(=O)C(Cl)C2c2ccc(Cl)cc2)cc(OC)c1OC (centres unmarked) [Compound 10b, 3-Chloro-4-(4-chlorophenyl)-1-(3,4,5-trimethoxyphenyl)azetidin-2-one] | – | –
14 | – | 133 to 134 °C | CCOc1ccc(N2C(=O)C(Cl)(Cl)C2c2cc(OC)c(OC)c(OC)c2)cc1 (centres unmarked) [Compound 13b, 3,3-Dichloro-1-(4-ethoxyphenyl)-4-(3,4,5-trimethoxyphenyl)azetidin-2-one] | – | 40% (10 μM)^c
15 | 64.1 ± 7.3 µM | – | COc1cc(N2C(=O)C(Cl)C2c2ccc(Oc3ccccc3)cc2)cc(OC)c1OC (centres unmarked) [Compound 10g, 3-Chloro-1-(3,4,5-trimethoxyphenyl)-4-(4-phenoxyphenyl)azetidin-2-one] | – | –
16 | 0.39 ± 0.03 µM | – | COc1ccc(C2C(Br)C(=O)N2c2cc(OC)c(OC)c(OC)c2)cc1F (centres unmarked) [Compound 16f, 3-Bromo-4-(3-fluoro-4-methoxyphenyl)-1-(3,4,5-trimethoxyphenyl) azetidin-2-one] | – | –
17 | – | 117 to 119 °C | COc1cc(C2N(c3ccc(SC)cc3)C(=O)C2(Cl)Cl)cc(OC)c1OC (centres unmarked) [Compound 13c, 3,3-Dichloro-1-(4-(methylthio)phenyl)-4-(3,4,5-trimethoxyphenyl) azetidin-2-one] | – | 20% (10 μM)^c
18 | 0.045 ± 0.01 µM | 129 to 130 °C | CCOc1ccc(C2C(Cl)C(=O)N2c2cc(OC)cc(OC)c2)cc1 (centres unmarked) [Compound 14b, 3-Chloro-1-(3,5-dimethoxyphenyl)-4-(4-ethoxyphenyl)azetidin-2-one] | – | –
19 | 0.62 ± 0.04 µM | – | COc1ccc(C2C(Br)C(=O)N2c2cc(OC)c(OC)c(OC)c2)cc1Br (centres unmarked) [Compound 16h, 3-Bromo-4-(3-bromo-4-methoxyphenyl)-1-(3,4,5-trimethoxyphenyl) azetidin-2-one] | – | –
20 | 0.353 ± 0.04 µM | 117 to 119 °C | COc1ccc(C2N(c3cc(OC)c(OC)c(OC)c3)C(=O)C2(Cl)Cl)cc1[N+](=O)[O-] (centres unmarked) [Compound 11m, 3,3-Dichloro-4-(4-methoxy-3-nitrophenyl)-1-(3,4,5-trimethoxyphenyl) azetidin-2-one] | – | –
21 | 0.322 ± 0.04 µM | 164 to 166 °C | COc1cc(N2C(=O)C(Cl)(Cl)C2c2ccc3ccccc3c2)cc(OC)c1OC (centres unmarked) [Compound 11k, 3,3-Dichloro-1-(3,4,5-trimethoxyphenyl)-4-(naphthalen-2-yl)azetidin-2-one] | – | –
22 | 37.2 ± 3.21 µM | 80 to 81 °C | COc1cc(N2C(=O)C(Cl)(Cl)C2c2ccccc2)cc(OC)c1OC (centres unmarked) [Compound 11a, 3,3-Dichloro-1-(3,4,5-trimethoxyphenyl)-4-phenylazetidin-2-one] | – | –
23 | 0.525 ± 0.03 µM | – | COc1ccc(C2C(Br)C(=O)N2c2cc(OC)c(OC)c(OC)c2)cc1C (centres unmarked) [Compound 16e, 3-Bromo-4-(4-methoxy-3-methylphenyl)-1-(3,4,5-trimethoxyphenyl) azetidin-2-one] | – | –
24 | – | 101 to 103 °C | COc1cc(C2C(Cl)C(=O)N2c2ccc(SC)cc2)cc(OC)c1OC (centres unmarked) [Compound 12c, 3-Chloro-1-(4-(methylthio)phenyl)-4-(3,4,5-trimethoxyphenyl) azetidin-2-one] | – | 10% (10 μM) ^c
25 | 61.6 ± 7.61 µM | 116 to 118 °C | COc1cc(N2C(=O)C(Cl)(Cl)C2c2ccc([N+](=O)[O-])cc2)cc(OC)c1OC (centres unmarked) [Compound 11d, 3,3-Dichloro-1-(3,4,5-trimethoxyphenyl)-4-(4-nitrophenyl)azetidin-2-one] | – | –
26 | 6.61 ± 2 µM | – | COc1ccc(C2N(c3cc(OC)cc(OC)c3)C(=O)C2(Cl)Cl)cc1 (centres unmarked) [Compound 15a, 3,3-Dichloro-1-(3,5-dimethoxyphenyl)-4-(4-methoxyphenyl)azetidin-2-one] | – | –
27 | 0.472 ± 0.2 µM | – | COc1ccc(C2C(Br)C(=O)N2c2cc(OC)c(OC)c(OC)c2)cc1Cl (centres unmarked) [Compound 16g, 3-Bromo-4-(3-chloro-4-methoxyphenyl)-1-(3,4,5-trimethoxyphenyl) azetidin-2-one] | – | –
28 | 0.613 ± 0.04 µM | – | COc1cc(N2C(=O)C(Br)C2c2ccc(SC)cc2)cc(OC)c1OC (centres unmarked) [Compound 16c, 3-Bromo-4-(4-(methylthio)phenyl)-1-(3,4,5-trimethoxyphenyl)azetidin-2-one] | – | –
